Reference: PubChem BioAssay (NCI)
Values joined by “and” are separate entries in the source; they are usually repeats but may differ in a detail not shown here. Equal entries are not always repeated.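 Assay format: 96-well plates, 48-hour exposure. GI50 marks 50% less growth. TGI is the concentration that stops growth completely.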

Legend:
Test in all cases: growth of human tumour cells (NCI), 48 h
[1] = test system: OVCAR-8 ovarian
[2] = test system: NCI-H522 lung
[3] = test system: SNB-75 CNS
[4] = test system: MCF7 breast
[5] = test system: T-47D breast
[6] = test system: HT29 colon
[7] = test system: SK-MEL-2 melanoma
[8] = test system: UACC-62 melanoma
[9] = test system: SR leukemia
[10] = test system: SF-268 CNS

C[C@@H]1CC[C@@H]2[C@@H]1[C@H](OC(=O)/C=C/C1CCCCC1)[C@]1(C3CCCCC3)C[C@@H](OC(=O)CO)[C@@]2(C)O1
GI50 [1]: 10.7 µM | TGI [1]: 24.1 µM | GI50 [2]: 13.7 µM | TGI [2]: 27.1 µM | GI50 [3]: 1.32 µM | TGI [3]: 16.5 µM | GI50 [4]: 12.8 µM | TGI [4]: 25.6 µM | GI50 [5]: 11.1 µM | TGI [5]: 24.1 µM | GI50 [6]: 13.1 µM | TGI [6]: 26.7 µM | GI50 [7]: 15 µM | TGI [7]: 28.5 µM | GI50 [8]: 13.5 µM | TGI [8]: 26.8 µM | GI50 [9]: 14 µM | TGI [9]: 32.9 µM | GI50 [10]: 0.859 µM | TGI [10]: 19.7 µM

c1ccc2c(N=NSc3ncnc4nc[nH]c34)c3ccccc3nc2c1
GI50 [1]: 1.5 µM | TGI [1]: 2.96 µM | GI50 [2]: 1.35 µM | TGI [2]: 3.36 µM | GI50 [3]: 1.35 µM | TGI [3]: 2.95 µM | GI50 [4]: 0.37 µM | TGI [4]: 10.4 µM | GI50 [5]: 1.44 µM | TGI [5]: 11 µM | GI50 [6]: 0.398 µM | TGI [6]: 2.16 µM | GI50 [7]: 1.64 µM | TGI [7]: 3.61 µM | GI50 [8]: 1.1 µM | TGI [8]: 2.63 µM | GI50 [9]: 1.06 µM | TGI [9]: 8.17 µM | GI50 [10]: 1.8 µM | TGI [10]: 6.53 µM

NC(=O)NNC/C(Cl)=C(\Cl)C(=O)O
TGI [1]: > 100 µM | TGI [2]: > 100 µM | TGI [3]: > 100 µM | TGI [6]: > 100 µM | TGI [7]: > 100 µM | TGI [8]: > 100 µM | TGI [10]: > 100 µM

N#C/C(=C\c1ccc[nH]1)c1cc(-c2ccc(Cl)cc2)nn1-c1ccccc1
GI50 [1]: 11.5 µM | TGI [1]: > 100 µM | GI50 [2]: 5.19 µM | TGI [2]: 29.4 µM | GI50 [3]: 2.29 µM | TGI [3]: 16 µM | GI50 [4]: 0.449 µM | TGI [4]: 19.7 µM | GI50 [5]: 1.56 µM | TGI [5]: 13.1 µM | GI50 [6]: 3.31 µM | TGI [6]: 13 µM | GI50 [7]: 8.65 µM | TGI [7]: 34.6 µM | GI50 [8]: 7.39 µM | TGI [8]: 28.2 µM | GI50 [9]: 1.97 µM | TGI [9]: 6.28 µM | GI50 [10]: 4.05 µM | TGI [10]: 18.3 µM

Nc1nc(N)c2c(ccc3c2ccn3Cc2cccc([N+](=O)[O-])c2)n1
GI50 [1]: 0.00901 µM | TGI [1]: 1.7 µM | GI50 [2]: 0.0607 µM | TGI [2]: 1.82 µM | GI50 [3]: 1.11 µM | TGI [3]: 2.36 µM | GI50 [4]: 0.0565 µM and 0.0293 µM | TGI [4]: 2.72 µM and 1.45 µM | GI50 [5]: 0.739 µM | TGI [5]: 3.05 µM | GI50 [7]: 1.26 µM | TGI [7]: 2.62 µM | GI50 [8]: 0.0306 µM | TGI [8]: 1.39 µM | GI50 [9]: 0.00779 µM | GI50 [10]: 0.0535 µM | TGI [10]: 1.99 µM

O=C(Nc1nc2c(C(F)(F)F)cccc2s1)c1cc(Cl)ccc1O
GI50 [1]: 0.326 µM | TGI [1]: 53.8 µM | GI50 [2]: 0.285 µM | TGI [2]: 14 µM | GI50 [3]: 0.262 µM | TGI [3]: 41.6 µM | GI50 [4]: 0.302 µM | TGI [4]: 27.5 µM | GI50 [5]: 0.245 µM | TGI [5]: 0.783 µM | GI50 [6]: 0.44 µM | TGI [6]: 13 µM | GI50 [8]: 0.252 µM | TGI [8]: 0.957 µM | GI50 [9]: 0.353 µM | TGI [9]: 3.28 µM | GI50 [10]: 0.422 µM | TGI [10]: > 100 µM

CN1C(=O)N(C)C2C1NC(=S)N2/N=C/C=C/c1ccccc1[N+](=O)[O-] (stereo unspecified)
GI50 [1]: 3.11 µM | TGI [1]: > 100 µM | GI50 [2]: 0.318 µM | TGI [2]: 9.65 µM | GI50 [3]: 0.319 µM | TGI [3]: > 100 µM | GI50 [4]: 0.409 µM | TGI [4]: > 100 µM | GI50 [5]: > 100 µM | TGI [5]: > 100 µM | GI50 [7]: 0.587 µM | TGI [7]: > 100 µM | GI50 [8]: 0.419 µM | TGI [8]: > 100 µM | GI50 [10]: 2.67 µM | TGI [10]: > 100 µM

CC(NNC(=S)N1CCN(c2ccccn2)CC1)c1nccc2ccccc12 (stereo unspecified)
TGI [1]: 15.7 µM | TGI [2]: 14 µM | TGI [3]: 18.9 µM | TGI [4]: 14.3 µM | TGI [5]: 16.9 µM | TGI [6]: 19.1 µM | TGI [7]: 18.3 µM | TGI [8]: 2.35 µM | TGI [10]: 14.5 µM

CC(=O)C1=C(C)N(Cc2ccccc2)C2(O)C=CC(=O)C3=C(O)c4ccccc4C(=O)C312 (stereo unspecified)
GI50 [1]: 6.25 µM | TGI [1]: 30 µM | GI50 [2]: 7.3 µM | TGI [2]: > 100 µM | GI50 [3]: 4.88 µM | TGI [3]: 25 µM | GI50 [4]: 3.8 µM | TGI [4]: 26.2 µM | GI50 [5]: 2.71 µM | TGI [5]: 7.97 µM | GI50 [6]: 3.71 µM | TGI [6]: > 100 µM | GI50 [7]: 20.8 µM | TGI [7]: > 100 µM | GI50 [8]: 2.64 µM | TGI [8]: 7.64 µM | GI50 [10]: 10.4 µM | TGI [10]: 29.1 µM

COC(=O)C1=C(C)NC(=S)NC1c1ccc(N(CCCl)CCCl)cc1Cl (stereo unspecified)
TGI [1]: > 100 µM | TGI [2]: 81.9 µM | TGI [3]: > 100 µM | TGI [4]: 66.1 µM | TGI [5]: > 55.4 µM | TGI [6]: > 82.8 µM | TGI [7]: > 85.9 µM | TGI [8]: 16.1 µM | TGI [10]: 98.4 µM

CCO/C=C\C12CCCC1NC(c1ccccc1)(c1ccccc1)O2 (stereo unspecified)
TGI [1]: > 100 µM | TGI [2]: 83.3 µM | TGI [3]: 78.5 µM | TGI [6]: 57.8 µM | TGI [7]: 45.7 µM | TGI [8]: 53.4 µM | TGI [10]: > 100 µM

Nc1ccc(C#Cc2ccccc2C#CCCCCO)cc1
GI50 [1]: 17 µM | TGI [1]: 33.5 µM | GI50 [2]: 15.7 µM | TGI [2]: 29.5 µM | GI50 [3]: 14.4 µM | TGI [3]: 29.8 µM | GI50 [4]: 23.5 µM | TGI [4]: 52.2 µM | GI50 [5]: 15.4 µM | TGI [5]: 30.7 µM | GI50 [6]: 13.3 µM | TGI [6]: 26.1 µM | GI50 [7]: 18.8 µM | TGI [7]: 37.1 µM | GI50 [8]: 14.9 µM | TGI [8]: 28.3 µM | GI50 [10]: 19.9 µM | TGI [10]: 40.4 µM

CCN1CCN(C(=O)[C@]23CC[C@@H](C)[C@H](C)[C@@H]2C2=CC[C@@H]4[C@@]5(C)CCC(=O)C(C)(C)[C@@H]5CC[C@@]4(C)[C@]2(C)CC3)CC1
GI50 [1]: 1.1 µM | TGI [1]: 2.89 µM | GI50 [2]: 0.831 µM | TGI [2]: 1.75 µM | GI50 [3]: 1.03 µM | TGI [3]: 3.82 µM | GI50 [4]: 0.891 µM | TGI [4]: 2.03 µM | GI50 [5]: 1.33 µM | TGI [5]: 3.89 µM | GI50 [6]: 0.913 µM | TGI [6]: 2.05 µM | GI50 [7]: 1.29 µM | TGI [7]: 3.33 µM | GI50 [8]: 0.835 µM | TGI [8]: 1.61 µM | GI50 [10]: 1.77 µM | TGI [10]: 6.49 µM

OC1OCC(COc2cc(Cl)c(Cl)cc2Cl)OC1O (stereo unspecified)
TGI [1]: > 100 µM | TGI [2]: 70.8 µM | TGI [3]: > 100 µM | TGI [6]: > 100 µM | TGI [8]: > 100 µM | TGI [10]: > 100 µM

COc1cc(/C=C2\[C@@H]3NC(Cc4c(OC)c(C)c(OC)c(OC)c43)C(=O)N2Cc2ccccc2)c(OC)c(C)c1OC
TGI [1]: > 100 µM | TGI [2]: 55 µM | TGI [3]: > 100 µM | TGI [6]: 68.1 µM | TGI [7]: 36.3 µM | TGI [8]: > 100 µM | TGI [9]: 62.8 µM | TGI [10]: > 100 µM
